Results published in ChEMBL document CHEMBL1201862, “PubChem BioAssay data set” (2004).
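All cell lines were grown in 96-well plates and treated with compound for 48 hours. GI50: concentration for 50% inhibition of growth.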 The source made the active and inactive calls. Rule as the data show it: active = GI50 up to about 1.1 µM and inactive = higher.

Experiments:
Test in all cases: NCI anticancer screen, dose series, 48 h
SF-295 = tested on: SF-295
CAKI-1 = tested on: CAKI-1
SF-268 = tested on: SF-268
OVCAR-5 = tested on: OVCAR-5
MOLT-4 = tested on: MOLT-4
HOP-62 = tested on: HOP-62
SR = tested on: SR
LXFL 529 = tested on: LXFL 529
786-0 = tested on: 786-0
HT-29 = tested on: HT-29
KM12 = tested on: KM12
NCI-H23 = tested on: NCI-H23
UACC-257 = tested on: UACC-257
SK-MEL-28 = tested on: SK-MEL-28
DMS-273 = tested on: DMS-273
OVCAR-8 = tested on: OVCAR-8
LOX IMVI = tested on: LOX IMVI
OVCAR-3 = tested on: OVCAR-3
SNB-75 = tested on: SNB-75
A549 = tested on: A549
HCC 2998 = tested on: HCC 2998
M14 = tested on: M14
UO-31 = tested on: UO-31
SF-539 = tested on: SF-539
HCT-15 = tested on: HCT-15
SK-MEL-2 = tested on: SK-MEL-2
SNB-19 = tested on: SNB-19
HCT-116 = tested on: HCT-116
SK-OV-3 = tested on: SK-OV-3
CCRF-CEM = tested on: CCRF-CEM
NCI-H522 = tested on: NCI-H522
RXF 631 = tested on: RXF 631
TK-10 = tested on: TK-10
U-251 = tested on: U-251
KM-20L2 = tested on: KM-20L2
OVCAR-4 = tested on: OVCAR-4
K562 = tested on: K562
IGROV-1 = tested on: IGROV-1
A498 = tested on: A498
SN12C = tested on: SN12C
ACHN = tested on: ACHN
SK-MEL-5 = tested on: SK-MEL-5
Malme-3M = tested on: Malme-3M
DLD-1 = tested on: DLD-1
UACC-62 = tested on: UACC-62
SW-620 = tested on: SW-620
EKVX = tested on: EKVX
NCI-H226 = tested on: NCI-H226
SNB-78 = tested on: SNB-78
DMS-114 = tested on: DMS-114
COLO 205 = tested on: COLO 205
RPMI-8226 = tested on: RPMI-8226
HOP-92 = tested on: HOP-92
NCI-H460 = tested on: NCI-H460
HL-60 = tested on: HL-60
RXF 393 = tested on: RXF 393
HOP-18 = tested on: HOP-18
M19-MEL = tested on: M19-MEL
XF498 = tested on: XF498

SMILES: COC(=O)C1=CC(=O)C(C(=O)Nc2ccc(OC)cc2)C(c2ccccc2)O1 (stereo not given)
- GI50 (SF-295): 24 µM (inactive)
- GI50 (CAKI-1): 25.2 µM (inactive)
- GI50 (SF-268): 17.8 µM (inactive)
- GI50 (OVCAR-5): > 100 µM (inactive)
- GI50 (MOLT-4): > 74.5 µM (inactive)
- GI50 (HOP-62): 24 µM (inactive)
- GI50 (SR): 44.5 µM (inactive)
- GI50 (LXFL 529): 25.9 µM (inactive)
- GI50 (786-0): 20.7 µM (inactive)
- GI50 (HT-29): > 66.5 µM (inactive)
- GI50 (KM12): > 100 µM (inactive)
- GI50 (NCI-H23): 21.4 µM (inactive)
- GI50 (UACC-257): 72.8 µM (inactive)
- GI50 (SK-MEL-28): 37.8 µM (inactive)
- GI50 (DMS-273): 37.5 µM (inactive)
- GI50 (OVCAR-8): 34.6 µM (inactive)
- GI50 (LOX IMVI): 45.1 µM (inactive)
- GI50 (OVCAR-3): 22.7 µM (inactive)
- GI50 (SNB-75): 23.1 µM (inactive)
- GI50 (A549): 28.1 µM (inactive)
- GI50 (HCC 2998): > 53.8 µM (inactive)
- GI50 (M14): 33.1 µM (inactive)
- GI50 (UO-31): 30.5 µM (inactive)
- GI50 (SF-539): 21.4 µM (inactive)
- GI50 (HCT-15): 40.6 µM
- GI50 (SK-MEL-2): > 81.7 µM (inactive)
- GI50 (SNB-19): 18.1 µM (inactive)
- GI50 (HCT-116): 28.6 µM (inactive)
- GI50 (SK-OV-3): 28.8 µM (inactive)
- GI50 (CCRF-CEM): > 77.3 µM (inactive)
- GI50 (NCI-H522): 28 µM (inactive)
- GI50 (RXF 631): 37.2 µM (inactive)
- GI50 (TK-10): 31.6 µM (inactive)
- GI50 (U-251): 21 µM (inactive)
- GI50 (KM-20L2): > 78.2 µM (inactive)
- GI50 (OVCAR-4): 28.4 µM (inactive)
- GI50 (K562): > 67.6 µM (inactive)
- GI50 (IGROV-1): 20.5 µM (inactive)
- GI50 (A498): 29.2 µM (inactive)
- GI50 (SN12C): 47.5 µM (inactive)
- GI50 (ACHN): 41 µM (inactive)
- GI50 (SK-MEL-5): 25.7 µM (inactive)
- GI50 (Malme-3M): > 53 µM (inactive)
- GI50 (DLD-1): > 75.5 µM (inactive)
- GI50 (UACC-62): 32.2 µM (inactive)
- GI50 (SW-620): 40.5 µM (inactive)
- GI50 (EKVX): 44.1 µM (inactive)
- GI50 (NCI-H226): 21.9 µM (inactive)
- GI50 (SNB-78): 37.9 µM (inactive)
- GI50 (DMS-114): 29.7 µM (inactive)
- GI50 (COLO 205): > 100 µM (inactive)
- GI50 (RPMI-8226): 54.5 µM (inactive)
- GI50 (HOP-92): 24 µM (inactive)
- GI50 (NCI-H460): 43.9 µM (inactive)
- GI50 (HL-60): > 84.3 µM (inactive)
- GI50 (RXF 393): 23.5 µM (inactive)

SMILES: COC(=O)C(C(=O)OC)C1CCCC(=O)C1 (stereo not given)
- GI50 (SF-295): > 100 µM (inactive)
- GI50 (SF-268): > 100 µM (inactive)
- GI50 (OVCAR-5): > 100 µM (inactive)
- GI50 (MOLT-4): > 100 µM (inactive)
- GI50 (HOP-62): > 100 µM (inactive)
- GI50 (SR): > 100 µM (inactive)
- GI50 (LXFL 529): > 100 µM (inactive)
- GI50 (786-0): > 100 µM (inactive)
- GI50 (HT-29): > 100 µM (inactive)
- GI50 (KM12): > 100 µM (inactive)
- GI50 (NCI-H23): > 100 µM (inactive)
- GI50 (UACC-257): > 100 µM (inactive)
- GI50 (SK-MEL-28): > 100 µM (inactive)
- GI50 (DMS-273): > 100 µM (inactive)
- GI50 (OVCAR-8): > 100 µM (inactive)
- GI50 (LOX IMVI): > 100 µM (inactive)
- GI50 (OVCAR-3): > 100 µM (inactive)
- GI50 (SNB-75): > 100 µM (inactive)
- GI50 (A549): > 100 µM (inactive)
- GI50 (HCC 2998): > 100 µM (inactive)
- GI50 (M14): > 100 µM (inactive)
- GI50 (UO-31): > 100 µM (inactive)
- GI50 (SF-539): > 100 µM (inactive)
- GI50 (HCT-15): > 100 µM
- GI50 (SK-MEL-2): < 0.01 µM (active)
- GI50 (SNB-19): > 100 µM (inactive)
- GI50 (HOP-18): > 100 µM (inactive)
- GI50 (HCT-116): > 100 µM (inactive)
- GI50 (SK-OV-3): > 100 µM (inactive)
- GI50 (CCRF-CEM): > 100 µM (inactive)
- GI50 (TK-10): > 100 µM (inactive)
- GI50 (U-251): > 100 µM (inactive)
- GI50 (KM-20L2): > 100 µM (inactive)
- GI50 (OVCAR-4): > 100 µM (inactive)
- GI50 (K562): > 100 µM (inactive)
- GI50 (M19-MEL): > 100 µM (inactive)
- GI50 (IGROV-1): > 100 µM (inactive)
- GI50 (A498): > 100 µM (inactive)
- GI50 (SN12C): > 100 µM (inactive)
- GI50 (ACHN): > 100 µM (inactive)
- GI50 (SK-MEL-5): > 100 µM (inactive)
- GI50 (Malme-3M): > 100 µM (inactive)
- GI50 (DLD-1): > 100 µM (inactive)
- GI50 (UACC-62): > 100 µM (inactive)
- GI50 (SW-620): > 100 µM (inactive)
- GI50 (EKVX): > 100 µM (inactive)
- GI50 (SNB-78): > 100 µM (inactive)
- GI50 (COLO 205): > 100 µM (inactive)
- GI50 (RPMI-8226): > 100 µM (inactive)
- GI50 (HOP-92): > 100 µM (inactive)
- GI50 (NCI-H460): > 100 µM (inactive)
- GI50 (XF498): > 100 µM (inactive)
- GI50 (HL-60): > 100 µM (inactive)
- GI50 (RXF 393): > 100 µM (inactive)
